Laboratory results reported in the supplement of paper PMC10307832.

How the values were obtained:
Test in all cases: relative viability (nuclei count vs DMSO), 5 days (fraction); higher = more cells survive
Gemcitabine + Bortezomib = compound: Nc1ccn([C@@H]2O[C@H](CO)[C@@H](O)C2(F)F)c(=O)n1 [Gemcitabine] + CC(C)C[C@H](NC(=O)[C@H](Cc1ccccc1)NC(=O)c1cnccn1)B(O)O [Bortezomib] (partner 0.002 µM)
Outline: (§1)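 Five library-drug doses in √10 steps were combined with a fixed anchor-drug dose, or a single drug was given alone, by pin tool to lung cancer cell lines in 1536-well plates the day after seeding. Nuclei were stained and counted after 5 days. Relative viability is the nuclei count in treated wells over that in vehicle wells, taken as the median of duplicate plates.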

Gemcitabine + Trametinib = compound: Nc1ccn([C@@H]2O[C@H](CO)[C@@H](O)C2(F)F)c(=O)n1 [Gemcitabine] + CC(=O)Nc1cccc(-n2c(=O)n(C3CC3)c(=O)c3c(Nc4ccc(I)cc4F)n(C)c(=O)c(C)c32)c1 [Trametinib] (partner 0.02 µM)
Outline: as §1

Gemcitabine + Olaparib = compound: Nc1ccn([C@@H]2O[C@H](CO)[C@@H](O)C2(F)F)c(=O)n1 [Gemcitabine] + O=C(c1cc(Cc2n[nH]c(=O)c3ccccc23)ccc1F)N1CCN(C(=O)C2CC2)CC1 [Olaparib] (partner 8 µM)
Outline: as §1

Gemcitabine + Pictilisib = compound: Nc1ccn([C@@H]2O[C@H](CO)[C@@H](O)C2(F)F)c(=O)n1 [Gemcitabine] + CS(=O)(=O)N1CCN(Cc2cc3nc(-c4cccc5[nH]ncc45)nc(N4CCOCC4)c3s2)CC1 [Pictilisib] (partner 1 µM)
Outline: as §1

Row | Cell Line | relative viability (Gemcitabine + Bortezomib; first compound 0.001 µM) | relative viability (Gemcitabine + Bortezomib; first compound 0.003162 µM) | relative viability (Gemcitabine + Bortezomib; first compound 0.01 µM) | relative viability (Gemcitabine + Bortezomib; first compound 0.03162 µM) | relative viability (Gemcitabine + Bortezomib; first compound 0.1 µM) | relative viability (Gemcitabine + Trametinib; first compound 0.001 µM) | relative viability (Gemcitabine + Trametinib; first compound 0.003162 µM) | relative viability (Gemcitabine + Trametinib; first compound 0.01 µM) | relative viability (Gemcitabine + Trametinib; first compound 0.03162 µM) | relative viability (Gemcitabine + Trametinib; first compound 0.1 µM) | relative viability (Gemcitabine + Olaparib; first compound 0.001 µM) | relative viability (Gemcitabine + Olaparib; first compound 0.003162 µM) | relative viability (Gemcitabine + Olaparib; first compound 0.01 µM) | relative viability (Gemcitabine + Olaparib; first compound 0.03162 µM) | relative viability (Gemcitabine + Olaparib; first compound 0.1 µM) | relative viability (Gemcitabine + Pictilisib; first compound 0.001 µM) | relative viability (Gemcitabine + Pictilisib; first compound 0.003162 µM) | relative viability (Gemcitabine + Pictilisib; first compound 0.01 µM) | relative viability (Gemcitabine + Pictilisib; first compound 0.03162 µM) | relative viability (Gemcitabine + Pictilisib; first compound 0.1 µM)
1 | NCI-H727 | 0.841 | 0.405 | 0.241 | 0.258 | 0.287 | 0.447 | 0.355 | 0.33 | 0.327 | 0.328 | 0.816 | 0.592 | 0.35 | 0.464 | 0.426 | 0.552 | 0.459 | 0.304 | 0.216 | 0.211
2 | NCI-H838 | 0.911 | 0.948 | 1.02 | 0.355 | 0.0993 | 0.51 | 0.621 | 0.561 | 0.274 | 0.127 | 0.787 | 0.842 | 0.534 | 0.282 | 0.12 | 0.476 | 0.501 | 0.468 | 0.346 | 0.141
3 | NCI-H1355 | 1.17 | 0.948 | 0.521 | 0.145 | 0.16 | 0.426 | 0.363 | 0.245 | 0.189 | 0.154 | 0.667 | 0.441 | 0.141 | 0.157 | 0.151 | 0.409 | 0.343 | 0.202 | 0.127 | 0.124
4 | NCI-H1437 | 0.532 | 0.395 | 0.342 | 0.127 | 0.105 | 0.523 | 0.611 | 0.384 | 0.241 | 0.164 | 0.622 | 0.781 | 0.488 | 0.325 | 0.225 | 0.409 | 0.457 | 0.258 | 0.118 | 0.0772
5 | NCI-H1650 | 0.189 | 0.18 | 0.175 | 0.147 | 0.133 | 0.556 | 0.337 | 0.208 | 0.174 | 0.137 | 0.886 | 0.522 | 0.479 | 0.12 | 0.122 | 0.524 | 0.466 | 0.267 | 0.181 | 0.144
6 | NCI-H1651 | 0.988 | 0.89 | 0.919 | 0.885 | 0.173 | 0.828 | 0.813 | 0.826 | 0.185 | 0.114 | 0.182 | 0.193 | 0.187 | 0.138 | 0.075 | 0.501 | 0.54 | 0.409 | 0.136 | 0.0858
7 | NCI-H1666 | 0.739 | 0.979 | 0.567 | 0.24 | 0.225 | 0.795 | 0.946 | 0.773 | 0.655 | 0.554 | 0.777 | 0.707 | 0.748 | 0.76 | 0.597 | 0.326 | 0.471 | 0.306 | 0.284 | 0.274
